Data: patent US12060588B2, “Methods of editing DNA methylation” (Whitehead Institute for Biomedical Research, priority 2016, dated 2024)

Tested on: HEK293T cells
Experiment: Nuclear-cytoplasmic localization of dCas9-Tet1 constructs with or without gRNA
Format: cell-based
Conditions: for induction index (nuclear-cytoplasmic ratio with sgRNA normalized to that without sgRNA): HEK293T cells
From the text: FIGS. 8A-8E depict a modified CRISPR system for editing 5-cytosine DNA methylation in the mammalian genome. FIG. 8A depicts design of dCas9-effector constructs with nuclear localization signal (NLS) located at different positions, and guide RNA (gRNA) or enhanced guide RNA (E-gRNA) with CMV-driven puro-T2A-Cherry cassette. Ub: human Ubiquitin C promoter. […] FIG. 8C provides comparison of the cellular localization of dCas9-NLS-Tet1 and NLS-dCas9-NLS-Tet1 in HEK293T cells with or without co-expression of a gRNA or E-gNRA targeting the same position in the MyoD locus. […] Co-expression of either gRNA or E-gRNA induced cytoplasm-to-nucleus translocation of these two proteins. Stained in green for dCas9, red for Cherry and blue for DAPI in the merged images. The red dashed lines in the first two panels indicate the cross section of the images for GFP intensity quantification. Scale bar: 10 um. FIG. 8D provides quantification of the nuclear-cytoplasmic ratio of dCas9-NLS-Tet1 and NLS-dCas9-NLS-Tet1 in HEK293T cells in the absence or presence of a gRNA, or an E-gNRA in a Box and Whiskers plot. Average dCas9 intensity of cytoplasmic and nuclear domain along a cross-sectional line as illustrated in C was used for the quantification. “+” denotes mean value of the 20 data points in each group; the boxes indicate the extreme data points (top and bottom bars), the 25-75% interval (box), and the median (central line). […] We reasoned that the combination with the highest induction index would result in the best signal-to-noise ratio for targeted DNA methylation editing.
To achieve targeted editing of DNA methylation, we fused dCas9 with enzymes in the methylation/demethylation pathway (FIG. 1A). […] Both gRNA constructs contain a puro selection cassette and a Cherry fluorescence protein cassette driven by an independent CMV promoter that allows for Fluorescence Activated Cell Sorting (FACS) of gRNA-expressing cells after lentiviral transduction (FIG. 8A). […]

Substance: dCas9-Tet1: catalytically inactive Cas9 (dCas9) fused through NLS to the Tet1 catalytic domain, SEQ ID NO: 159; lentivirally expressed with gRNAs
- induction index (nuclear-cytoplasmic ratio with sgRNA normalized to that without sgRNA) (co-expression of E-gRNA targeting the MyoD locus): 3.22 folds
- induction index (nuclear-cytoplasmic ratio with sgRNA normalized to that without sgRNA) (co-expression of gRNA targeting the MyoD locus): 3.17 folds
- cellular localization (in the absence of sgRNAs, transfected HEK293T cells): predominantly excluded from the nuclear compartment
